Six compounds from ChEMBL document CHEMBL1201862, “PubChem BioAssay data set” (2004) can be followed below.

Assay [1] can be described thus: NIH-3T3 fibroblast cytotoxicity, dose response, cytotoxicity control, cell-based, fluorescence, Alamar Blue, secondary assay (AID 2327).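 Further: NIH-3T3 mouse fibroblasts cultured with fluconazole at 8 µg/mL.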 It counts as functional. For orientation: Resazurin is reduced to fluorescent resorufin, in cell work by metabolically active cells.
Assay [2] has as its target Sphingosine 1-phosphate receptor 2 (Homo sapiens, UniProt O95136). The experiment in a line: Dose Response Cell Based Assay for Antagonists of the S1P2 Receptor. [Related pubchem assays: 856, 736 ]. It counts as functional.
In assay [3] the test system is Streptococcus sp. 'group A'. In words: growth inhibition of control SK(-) GAS strain, dose response, counter-screen for streptokinase expression inhibitor project, luminescence, kanamycin, BacTiterGlo, confirmation (AID 1900). It counts as functional, organism-based.
The test system of assay [4] is BJ. In words: cytotoxicity toward BJ-TERT fibroblasts, dose response, cell-based, RAS-independent, luminescence (AID 1933). In kind it is functional. The settings on record: Homo sapiens.
The target in another assay is T1, Streptokinase A (Streptococcus pyogenes serotype M1, UniProt P10520).
T1 sequence (P10520 whole entry): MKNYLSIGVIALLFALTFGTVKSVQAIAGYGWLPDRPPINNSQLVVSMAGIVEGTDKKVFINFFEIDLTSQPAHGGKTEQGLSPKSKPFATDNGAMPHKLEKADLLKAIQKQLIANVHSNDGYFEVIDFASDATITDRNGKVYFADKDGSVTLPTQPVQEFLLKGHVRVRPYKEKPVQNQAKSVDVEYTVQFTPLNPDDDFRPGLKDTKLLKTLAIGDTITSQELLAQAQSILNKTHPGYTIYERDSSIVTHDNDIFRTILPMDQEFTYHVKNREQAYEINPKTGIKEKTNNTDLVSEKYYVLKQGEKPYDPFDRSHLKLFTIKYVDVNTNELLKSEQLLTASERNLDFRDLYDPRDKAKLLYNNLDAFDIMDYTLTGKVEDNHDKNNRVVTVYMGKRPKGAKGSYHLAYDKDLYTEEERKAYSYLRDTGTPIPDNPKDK
The experiment in a line: S. pyogenes streptokinase expression inhibitors, potency, dose response, plasminogen activation absorbance, OD405 (AID 1914).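 Further: secreted streptokinase activity via plasminogen activation per viability signal from cell pellet.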 In kind it is functional, Streptococcus pyogenes M1 GAS.

The subject of assay [5] is BJ. The experiment in a line: cells. In kind it is functional, cell-based. The settings on record: Homo sapiens.
Assay [6] is described as follows: C. albicans growth with fluconazole, confirmation, fluorescence, retest (AID 2467). It counts as functional, cell-based.
Assay [7] is described as follows: growth suppression of PTEN-null colon cells, dose response, cell-based, HCT116 PTEN knockout (AID 1047).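 Further: HCT116 colon tumor cells with PTEN knocked out; cells exposed to compound for 60 hours before readout; potency for loss of cell viability measured by luminescence.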 It counts as functional.
Assay [8] can be described thus: growth suppression of beta-catenin-knockout colon cells, dose response, cell-based, HCT116, human colon tumor (AID 1045).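 Further: HCT116 colon tumor cells with beta catenin knocked out; cells exposed to compound for 60 hours.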 In kind it is functional.
Assay [9] deals with BJ. In words: cytotoxicity toward BJ-TERT-LT-ST fibroblasts, dose response, cell-based, RAS-independent, luminescence (AID 1935).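 Further: BJ fibroblasts immortalized with TERT plus LT and ST oncogenes.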 It counts as functional. The settings on record: Homo sapiens.
Assay [10] can be described thus: cytotoxicity toward DRD oncogenic fibroblasts, dose response, cell-based, non-viral oncogenic, luminescence (AID 1934). In kind it is functional. The settings on record: Homo sapiens.
A further assay has as its system Streptococcus. The experiment in a line: Group A Streptococcus viability loss, dose response, counter-screen for streptokinase expression inhibitor project, luminescence, BacTiterGlo (AID 1915).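 Further: potency for reduction of bacterial viability or growth.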 It counts as functional, organism-based. For orientation: Counterscreens check selectivity or assay interference.
In assay [11] the target is Eukaryotic translation initiation factor 4E (Mus musculus, UniProt P63073). In words: eIF4E–eIF4G protein interaction inhibitors, dose response, biochemical, TR-FRET (AID 855).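 Further: potency for disrupting eIF4E binding to eIF4GI seen as loss of FRET.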 It counts as functional. For orientation: In TR-FRET formats the signal depends on donor and acceptor labels being close together.
Assay [12] can be described thus: cytotoxicity in HEK-293T cells, dose response, cytotoxicity control for TCR NF-kB inhibitor project, luminescence, T-cell screen hits (AID 489026).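 Further: cells exposed to compound about 14 hours before the viability readout.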 In kind it is functional, cell-based.
A further assay concerns the target Nonstructural protein 1 (Influenza A virus, UniProt Q194T2). It counts as functional, Influenza A virus (A/California/07/2009(H1N1)).
For assay [13], the system named is BJ. The experiment in a line: cytotoxicity toward Ras-transformed BJeLR fibroblasts, dose response, cell-based, alamar blue fluorescence, cherrypicked samples (AID 2631).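 Further: confirmatory dose-response assay in RAS-dependent BJ fibroblasts engineered with TERT, LT and ST, with cytotoxicity read by fluorescence.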 The settings on record: Homo sapiens. It counts as functional.
Assay [14] in a line: HeLa cell cytotoxicity, dose response, cytotoxicity control for MgcRacGAP inhibitor project (AID 624300). In kind it is functional.
Assay [15] has as its target T2, Rac GTPase-activating protein 1 (Homo sapiens, UniProt Q9H0H5).
T2 sequence (Q9H0H5 whole entry): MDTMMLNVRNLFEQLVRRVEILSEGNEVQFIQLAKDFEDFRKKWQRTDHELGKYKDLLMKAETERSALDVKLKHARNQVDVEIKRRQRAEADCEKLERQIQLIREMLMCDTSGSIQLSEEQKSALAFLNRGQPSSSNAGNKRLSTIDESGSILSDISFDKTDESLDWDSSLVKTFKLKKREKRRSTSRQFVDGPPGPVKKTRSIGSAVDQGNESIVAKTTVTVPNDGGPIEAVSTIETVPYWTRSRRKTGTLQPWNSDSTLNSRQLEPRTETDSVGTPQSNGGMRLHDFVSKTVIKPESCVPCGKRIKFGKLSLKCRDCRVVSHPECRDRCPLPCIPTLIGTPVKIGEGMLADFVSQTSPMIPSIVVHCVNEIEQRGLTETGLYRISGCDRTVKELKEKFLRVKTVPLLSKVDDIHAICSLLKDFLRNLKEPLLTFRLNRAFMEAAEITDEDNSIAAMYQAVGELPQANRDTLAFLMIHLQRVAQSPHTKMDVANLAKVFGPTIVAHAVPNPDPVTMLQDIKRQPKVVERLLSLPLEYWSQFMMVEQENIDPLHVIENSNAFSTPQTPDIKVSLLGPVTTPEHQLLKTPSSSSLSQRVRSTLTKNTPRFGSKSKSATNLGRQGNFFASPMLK
In words: MgcRacGAP GTPase-activating activity inhibitors, confirmation, biochemical, ADP Hunter fluorescence, primary and confirmatory (AID 624330). In kind it is functional.

Assay [16] can be described thus: Dose-response inhibition of insulin secretion in a rat insulinoma line at 5 mM glucose (AID 1117331). It counts as functional, cell-based. The settings on record: INS-1E.
Assay [17] in a line: half-maximal inhibitory concentration for glucagon-like peptide-1 release, STC-1 cell line, dose-response (AID 1117345). It counts as functional, cell-based.
Assay [18] in a line: Glucagon-like peptide 1 release potency, NCI-H716 cell line, dose-response, half-maximal inhibitory concentration (AID 1117344). It counts as functional, cell-based.
In the next assay the target is Genome polyprotein (Hepatitis C virus, UniProt Q2Q167). In words: HCV core protein dimerization inhibitors, dose response, biochemical, TR-FRET (AID 2159).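 Further: blocks dimerization of HCV core protein measured by TR-FRET between tagged core106 pairs.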 Details: species or system Hepacivirus hominis.
Assay [19] deals with E3 ubiquitin-protein ligase Mdm2 (Homo sapiens, UniProt Q00987). The experiment in a line: enhancers of MDM2-luciferase reporter signal, concentration-effect titration, project on inhibitors of MDM2 ubiquitin ligase, cellular assay, luminescent readout, 384-well plate format (AID 1394).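 Further: MDM2 E3 inhibitors raise luminescence so EC50 is for signal enhancement.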 In kind it is functional.
The next assay has as its system INS1. The experiment in a line: beta cell apoptosis inhibitors, cytokine rescue, dose response, luminescence, retest (AID 449756).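 Further: cell death triggered by IL-1 beta plus TNF-alpha plus IFN-gamma mixture; protective hits raise ATP signal compared with cytokine alone wells.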 It counts as functional, cell-based. The settings on record: Rattus norvegicus.
For a further assay, the target named is T3, Caspase-6 (Homo sapiens, UniProt P55212).
T3 sequence (P55212 whole entry): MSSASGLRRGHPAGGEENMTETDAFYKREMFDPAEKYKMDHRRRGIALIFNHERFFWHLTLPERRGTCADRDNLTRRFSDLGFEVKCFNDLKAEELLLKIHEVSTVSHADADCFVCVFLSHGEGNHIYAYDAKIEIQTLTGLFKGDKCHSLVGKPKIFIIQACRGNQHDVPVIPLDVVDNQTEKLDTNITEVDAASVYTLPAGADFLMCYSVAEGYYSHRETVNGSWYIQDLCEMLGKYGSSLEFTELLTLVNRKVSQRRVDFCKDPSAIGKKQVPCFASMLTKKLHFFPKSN
The experiment in a line: human caspase-6 inhibitors, dose response, biochemical, VEID-R110 fluorescence, cherry-pick (AID 720632).

Activity calls are given as the source filed them.

Chain of Sphingosine 1-phosphate receptor 2 (O95136 whole entry): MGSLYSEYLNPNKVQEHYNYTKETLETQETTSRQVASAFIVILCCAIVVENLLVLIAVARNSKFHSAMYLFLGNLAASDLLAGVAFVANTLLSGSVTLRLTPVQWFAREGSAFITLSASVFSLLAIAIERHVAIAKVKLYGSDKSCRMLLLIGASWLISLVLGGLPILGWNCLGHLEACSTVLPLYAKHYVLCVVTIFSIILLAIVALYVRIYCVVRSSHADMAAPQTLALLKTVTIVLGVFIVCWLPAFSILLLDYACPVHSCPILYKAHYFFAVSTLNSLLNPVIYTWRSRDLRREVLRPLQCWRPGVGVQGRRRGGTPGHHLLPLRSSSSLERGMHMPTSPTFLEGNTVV
Chain of Genome polyprotein (Q2Q167 whole entry): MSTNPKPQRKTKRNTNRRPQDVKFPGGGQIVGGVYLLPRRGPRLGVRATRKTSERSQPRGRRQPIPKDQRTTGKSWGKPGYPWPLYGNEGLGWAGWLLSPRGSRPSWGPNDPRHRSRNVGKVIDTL
Chain of Nonstructural protein 1 (Q194T2 whole entry): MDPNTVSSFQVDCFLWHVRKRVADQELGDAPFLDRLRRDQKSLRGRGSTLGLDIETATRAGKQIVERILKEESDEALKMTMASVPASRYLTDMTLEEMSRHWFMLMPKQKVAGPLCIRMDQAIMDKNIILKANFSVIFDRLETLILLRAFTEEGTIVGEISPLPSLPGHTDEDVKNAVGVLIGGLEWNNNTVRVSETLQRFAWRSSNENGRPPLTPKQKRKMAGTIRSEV
Chain of Eukaryotic translation initiation factor 4E (P63073 whole entry): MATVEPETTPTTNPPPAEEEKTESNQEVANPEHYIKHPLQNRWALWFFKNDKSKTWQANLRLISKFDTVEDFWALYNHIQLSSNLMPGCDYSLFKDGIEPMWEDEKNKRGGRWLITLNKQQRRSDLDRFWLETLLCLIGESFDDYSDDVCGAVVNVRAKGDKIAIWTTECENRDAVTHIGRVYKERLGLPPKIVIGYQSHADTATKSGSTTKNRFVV
Chain of E3 ubiquitin-protein ligase Mdm2 (Q00987 whole entry): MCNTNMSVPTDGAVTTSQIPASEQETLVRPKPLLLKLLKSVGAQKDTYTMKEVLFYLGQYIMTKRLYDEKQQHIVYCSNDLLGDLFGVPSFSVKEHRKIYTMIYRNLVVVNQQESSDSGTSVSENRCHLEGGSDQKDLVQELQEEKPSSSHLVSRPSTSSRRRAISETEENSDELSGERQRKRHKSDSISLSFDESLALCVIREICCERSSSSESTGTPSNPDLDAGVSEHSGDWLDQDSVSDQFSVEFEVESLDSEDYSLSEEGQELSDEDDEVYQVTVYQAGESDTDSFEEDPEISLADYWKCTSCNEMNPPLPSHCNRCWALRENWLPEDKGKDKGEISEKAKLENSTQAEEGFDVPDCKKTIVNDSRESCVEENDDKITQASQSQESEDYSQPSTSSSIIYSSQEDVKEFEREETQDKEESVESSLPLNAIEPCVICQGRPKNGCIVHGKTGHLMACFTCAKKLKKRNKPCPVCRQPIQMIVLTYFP

A word on the EC50: it is the concentration at which the effect is half-maximal. The IC50 is the concentration that gives 50% inhibition. As usually defined, the CC50 is the concentration at which the toxic effect on the cells reaches its halfway point. Regarding `CCN1/C(=C/c2ccc3ccccc3[n+]2CC)C=Cc2ccccc21`, the 50% effective concentration (EC50) was 12 µM (active) in assay [1]; 4.74 µM (active) in assay [3]; 1.21 µM (active) in the assay on BJ [4]; > 150 µM (not active) on Streptokinase A; 2.73 µM (active) with BJ [5]; 0.639 µM (active) in assay [6]. The EC50 in assay [7] was 0.249 µM (active); in assay [8], 0.167 µM (active); in the assay with BJ [9], 3.1 µM (inconclusive); in assay [10], 3.27 µM (active); in the assay on Streptococcus, 35 µM (active); in the assay on BJ [13], 1.89 µM (active). The IC50 is 3.1 µM (active) in assay [2]; 33.8 µM (inactive) in assay [11]; 33.1 µM (inactive) in [12]; 12.8 µM (active) at Nonstructural protein 1; 46.5 µM (active) in assay [15]. Also, the CC50 in [14] was 19 µM (active).
Consider `O=C(O)c1sc2cc(C(F)(F)F)cnc2c1-c1ccco1`, for which the IC50 in assay [2] is given as > 30 µM (not active).
As for `COC(=O)C(Cl)C(=O)OC`, the IC50 in [16] was > 33.3 µM (inactive); in [17], 8.37 µM (inactive); in [18] it was > 40 µM (inactive).
In the case of `COc1ccc(N2CCN(C(=O)c3ccc4c(c3)NC(=O)C(CSCc3ccc(C)cc3)N4)CC2)cc1` (configuration not stated), the IC50 against Genome polyprotein is recorded as > 49.8 µM (not active).
As to `COc1ccc2[nH]c(C(=O)O)c(CCNC(C)=O)c2c1`, the EC50 in assay [19] is 0.39 µM (not active).
The AC50 is the midpoint of the concentration-response curve, whichever way the signal moves. For the compound `CC1=NN(c2ccc(C)c(C)c2)C(=O)/C1=C\C=C\c1ccc([N+](=O)[O-])o1`, the IC50 against Genome polyprotein is > 49.8 µM (not active). In addition, the concentration at half-maximal activity (AC50) is 4.08 µM (active) with INS1 and 1.79 µM (active) at Caspase-6.
